{"source": "patent US20240381872A1", "about": "“SUBSTITUTED 2,3-DIHYDRO[1,3]THIAZOLO[4,5-B]PYRIDINES, SALTS THEREOF AND THEIR USE AS HERBICIDALLY ACTIVE SUBSTANCES” (BAYER AKTIENGESELLSCHAFT, priority 2021, published 2024)", "format_in_all_cases": "in vivo", "key": {"[1]": {"test_system": "Abutilon theophrasti (ABUTH)", "assay": "Herbicidal post-emergence action, section E (Table E1)", "conditions": "application rate 320 g/ha; assessed visually after ca. 3 weeks", "text": "(§1) Seeds of mono- and dicotyledonous weed plants and crop plants were sown, in plastic or organic planting pots, in sandy loam, covered with soil and grown in a greenhouse under controlled growth conditions. 2 to 3 weeks after sowing, the test plants were sprayed in the single-leaf stage. The compounds according to the invention, formulated in form of wettable powders (WP) or as emulsifiable concentrates (EC), were sprayed onto the green plant parts as aqueous suspension or emulsion, with the addition of 0.5% of an additive, at an application rate of 600 l of water/ha (converted). The test plants were placed in the greenhouse for ca. 3 weeks under optimum growth conditions, and then the effect of the preparations was assessed visually in comparison with untreated controls (herbicidal effect in percent (%): 100% effect=plants have died off, 0% effect=as control plants)."}, "[2]": {"test_system": "Stellaria media (STEME)", "assay": "Herbicidal post-emergence action, section B (Table B9)", "conditions": "visual rating about 3 weeks after treatment vs untreated controls", "procedure,_shortened": "(§2)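 Visual percent control about 3 weeks post-spray, relative to untreated plants. Application was to foliage at the one-leaf stage (2 to 3 weeks after sowing in sandy loam), using WP or EC formulations in water with 0.5% additive at 600 liters per hectare.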"}, "[3]": {"test_system": "Abutilon theophrasti (ABUTH)", "assay": "Herbicidal post-emergence action, section B (Table B1)", "conditions": "rated visually after about 3 weeks", "procedure,_shortened": "as §2"}, "[4]": {"test_system": "Poa annua (POAAN)", "assay": "Herbicidal post-emergence action, section B (Table B7)", "conditions": "visual rating about 3 weeks after treatment vs untreated controls", "procedure,_shortened": "as §2"}, "[5]": {"test_system": "Veronica persica (VERPE)", "assay": "Herbicidal pre-emergence action, section A (Table A10)", "conditions": "application rate 1280 g/ha", "procedure,_shortened": "(§3)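 Compounds are applied pre-emergence to the soil covering freshly sown seeds in sandy loam, as WP or EC in water with 0.5% additive at a spray volume of 600 l/ha. Plants grow in the greenhouse, and percent damage is rated visually after roughly 3 weeks relative to untreated controls.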"}, "[6]": {"test_system": "Amaranthus retroflexus (AMARE)", "assay": "Herbicidal post-emergence action, section B (Table B11)", "conditions": "visual rating about 3 weeks after treatment vs untreated controls", "procedure,_shortened": "as §2"}, "[7]": {"test_system": "Veronica persica (VERPE)", "assay": "Herbicidal post-emergence action, section E (Table E9)", "conditions": "application rate 320 g/ha, visual assessment ca. 3 weeks after spraying; for pest or weed control at 320 g/ha: Veronica persica, 504 h, read-out: post-emergence activity against VERPE in %", "text": "as §1"}, "[8]": {"test_system": "Poa annua (POAAN)", "assay": "Herbicidal pre-emergence action, section A (Table A7)", "conditions": "visual grading after ca. 3 weeks vs untreated controls", "procedure,_shortened": "as §3"}, "[9]": {"test_system": "Amaranthus retroflexus (AMARE)", "assay": "Herbicidal pre-emergence action, section C (Table C11)", "conditions": "visual grading after ca. 3 weeks; for pest or weed control at 80 g/ha: Amaranthus retroflexus, pre-emergence, 504 h, application rate 80 g/ha, read-out: pre-emergence activity against AMARE in %", "procedure,_shortened": "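Pre-emergence, sandy loam. WP/EC formulations applied to covering soil surface, aqueous, + 0.5% additive, 600 l water/ha. Greenhouse, optimum growth. Visual % damage vs untreated, ca. 3 wk.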"}, "[10]": {"test_system": "Digitaria sanguinalis (DIGSA)", "assay": "Herbicidal post-emergence action, section B (Table B12)", "conditions": "visual rating about 3 weeks after treatment vs untreated controls", "procedure,_shortened": "as §2"}, "[11]": {"test_system": "Oryza sativa (ORYZA)", "assay": "Post-emergence effects on crop plants, section F (Table F3)", "conditions": "application rate 320 g/ha; for percent crop plant damage at 320 g/ha: Oryza sativa, 504 h, read-out: post-emergence activity against ORYZA in %; for post-emergence activity against ORYZA in %: crop plant damage", "text": "as §1, with “plants). Tables F1 to F4 below show the effects of selected compounds of the general formula (I) according to Table 1 on various crop plants and an application rate corresponding to 320 g/ha or below obtained by the experimental procedure mentioned above.” for “plants).”"}}, "data": [{"smiles": "COC(=O)CCC(=O)N1CSc2cc(C)c(-c3ccccc3F)nc21", "note": "[Example I-010]", "values": [{"measurement": "post-emergence activity against ABUTH in %", "setting": "[1]", "result": 80, "unit": "%"}, {"measurement": "post-emergence activity against STEME in %", "setting": "[2]; application rate 320 g/ha", "result": 90, "unit": "%"}, {"measurement": "post-emergence activity against ABUTH in %", "setting": "[3]; application rate 320 g/ha", "result": 90, "unit": "%"}, {"measurement": "post-emergence activity against POAAN in %", "setting": "[4]; application rate 1280 g/ha", "result": 90, "unit": "%"}, {"measurement": "pre-emergence activity against VERPE in %", "setting": "[5]", "result": 90, "unit": "%"}, {"measurement": "post-emergence activity against AMARE in %", "setting": "[6]; application rate 320 g/ha", "result": 90, "unit": "%"}, {"measurement": "post-emergence activity against VERPE in %", "setting": "[7]", "result": 80, "unit": "%"}, {"measurement": "pre-emergence activity against POAAN in %", "setting": "[8]; application rate 320 g/ha", "result": 100, "unit": "%"}, {"measurement": "pre-emergence activity against AMARE in %", "setting": "[9]; application rate 320 g/ha", "result": 90, "unit": "%"}, {"measurement": "post-emergence activity against DIGSA in %", "setting": "[10]; application rate 1280 g/ha", "result": 90, "unit": "%"}]}, {"smiles": "CC(C)C(=O)N1C[S+]([O-])c2cc(Br)c(-c3ccccc3)nc21", "note": "(centres unmarked) [Example I-067]", "values": [{"measurement": "percent crop plant damage at 320 g/ha", "setting": "[11]", "result": 0, "unit": "%"}, {"measurement": "pest or weed control at 320 g/ha", "setting": "[7]", "result": 90, "unit": "%"}, {"measurement": "pest or weed control at 80 g/ha", "setting": "[9]", "result": 80, "unit": "%"}]}, {"smiles": "COC(=O)CCC(=O)N1CSc2cc(Cl)c(-c3ccccc3F)nc21", "note": "[Example I-003]", "values": [{"measurement": "post-emergence activity against ORYZA in %", "setting": "[11]", "result": 0, "unit": "%"}, {"measurement": "post-emergence activity against STEME in %", "setting": "[2]; application rate 1280 g/ha", "result": 90, "unit": "%"}, {"measurement": "post-emergence activity against POAAN in %", "setting": "[4]; application rate 320 g/ha", "result": 100, "unit": "%"}, {"measurement": "pre-emergence activity against VERPE in %", "setting": "[5]", "result": 90, "unit": "%"}, {"measurement": "post-emergence activity against AMARE in %", "setting": "[6]; application rate 1280 g/ha", "result": 90, "unit": "%"}, {"measurement": "pre-emergence activity against POAAN in %", "setting": "[8]; application rate 1280 g/ha", "result": 100, "unit": "%"}, {"measurement": "post-emergence activity against DIGSA in %", "setting": "[10]; application rate 1280 g/ha", "result": 100, "unit": "%"}]}, {"smiles": "Cc1cc2c(nc1-c1ccccc1F)N(S(=O)(=O)Cc1ccc(F)cc1)CS2", "note": "[Example I-122]", "values": [{"measurement": "post-emergence activity against ABUTH in %", "setting": "[1]", "result": 80, "unit": "%"}, {"measurement": "post-emergence activity against STEME in %", "setting": "[2]; application rate 1280 g/ha", "result": 90, "unit": "%"}, {"measurement": "post-emergence activity against ABUTH in %", "setting": "[3]; application rate 1280 g/ha", "result": 90, "unit": "%"}, {"measurement": "post-emergence activity against POAAN in %", "setting": "[4]; application rate 320 g/ha", "result": 90, "unit": "%"}, {"measurement": "pre-emergence activity against VERPE in %", "setting": "[5]", "result": 90, "unit": "%"}, {"measurement": "post-emergence activity against AMARE in %", "setting": "[6]; application rate 320 g/ha", "result": 90, "unit": "%"}, {"measurement": "post-emergence activity against VERPE in %", "setting": "[7]", "result": 90, "unit": "%"}, {"measurement": "pre-emergence activity against POAAN in %", "setting": "[8]; application rate 320 g/ha", "result": 100, "unit": "%"}, {"measurement": "post-emergence activity against DIGSA in %", "setting": "[10]; application rate 1280 g/ha", "result": 90, "unit": "%"}]}, {"smiles": "CCc1ccccc1-c1nc2c(cc1C)[S+]([O-])CN2", "note": "(centres unmarked) [Example I-047]", "values": [{"measurement": "percent crop plant damage at 320 g/ha", "setting": "[11]", "result": 0, "unit": "%"}, {"measurement": "pest or weed control at 1280 g/ha", "setting": "[2]; Stellaria media, post-emergence, 504 h, application rate 1280 g/ha, read-out: post-emergence activity against STEME in %", "result": 90, "unit": "%"}, {"measurement": "pest or weed control at 320 g/ha", "setting": "[4]; Poa annua, post-emergence, 504 h, application rate 320 g/ha, read-out: post-emergence activity against POAAN in %", "result": 90, "unit": "%"}, {"measurement": "pest or weed control at 320 g/ha", "setting": "[6]; Amaranthus retroflexus, post-emergence, 504 h, application rate 320 g/ha, read-out: post-emergence activity against AMARE in %", "result": 90, "unit": "%"}, {"measurement": "pest or weed control at 320 g/ha", "setting": "[7]", "result": 80, "unit": "%"}, {"measurement": "pest or weed control at 1280 g/ha", "setting": "[8]; Poa annua, pre-emergence, 504 h, application rate 1280 g/ha, read-out: pre-emergence activity against POAAN in %", "result": 100, "unit": "%"}, {"measurement": "pest or weed control at 80 g/ha", "setting": "[9]", "result": 90, "unit": "%"}]}, {"smiles": "BN1CSc2cc(Br)c(-c3ccccc3C)nc21", "note": "[Example I-011]", "values": [{"measurement": "post-emergence activity against ORYZA in %", "setting": "[11]", "result": 0, "unit": "%"}, {"measurement": "post-emergence activity against STEME in %", "setting": "[2]; application rate 1280 g/ha", "result": 90, "unit": "%"}, {"measurement": "post-emergence activity against POAAN in %", "setting": "[4]; application rate 1280 g/ha", "result": 90, "unit": "%"}, {"measurement": "pre-emergence activity against VERPE in %", "setting": "[5]", "result": 90, "unit": "%"}, {"measurement": "post-emergence activity against AMARE in %", "setting": "[6]; application rate 1280 g/ha", "result": 90, "unit": "%"}, {"measurement": "pre-emergence activity against POAAN in %", "setting": "[8]; application rate 320 g/ha", "result": 100, "unit": "%"}]}, {"smiles": "Cc1cc2c(nc1-c1cccc(C)c1F)NCS2", "note": "[Example I-113]", "values": [{"measurement": "post-emergence activity against STEME in %", "setting": "[2]; application rate 1280 g/ha", "result": 90, "unit": "%"}, {"measurement": "post-emergence activity against POAAN in %", "setting": "[4]; application rate 320 g/ha", "result": 90, "unit": "%"}, {"measurement": "pre-emergence activity against VERPE in %", "setting": "[5]", "result": 90, "unit": "%"}, {"measurement": "pre-emergence activity against POAAN in %", "setting": "[8]; application rate 1280 g/ha", "result": 100, "unit": "%"}, {"measurement": "post-emergence activity against DIGSA in %", "setting": "[10]; application rate 320 g/ha", "result": 90, "unit": "%"}]}]}
